In ChEMBL document CHEMBL5678818, “Discovery of potent SOS1 inhibitors that block RAS activation via disruption of the RAS-SOS1 interaction” (Proc Natl Acad Sci U S A, 2019) one finds Activity data, which are given here for 2 compounds.

For test [1], the system named is Epidermal growth factor receptor (Homo sapiens), P00533 [L858R,T790M]. In words: Inhibition of EGFR L858R/T790M mutant (unknown origin) assessed as residual activity at 1000 nM by KINOMEscan analysis relative to control.
Test [2] deals with Maternal embryonic leucine zipper kinase (Homo sapiens) (UniProt Q14680). In words: Inhibition of MELK (unknown origin) assessed as residual activity at 1000 nM by KINOMEscan analysis relative to control.
For test [3], the target named is TGF-beta receptor type-2 (Homo sapiens) (UniProt P37173). In words: Inhibition of TGFBR2 (unknown origin) assessed as residual activity at 1000 nM by KINOMEscan analysis relative to control.
Chain of TGF-beta receptor type-2 (Homo sapiens) (P37173 whole entry): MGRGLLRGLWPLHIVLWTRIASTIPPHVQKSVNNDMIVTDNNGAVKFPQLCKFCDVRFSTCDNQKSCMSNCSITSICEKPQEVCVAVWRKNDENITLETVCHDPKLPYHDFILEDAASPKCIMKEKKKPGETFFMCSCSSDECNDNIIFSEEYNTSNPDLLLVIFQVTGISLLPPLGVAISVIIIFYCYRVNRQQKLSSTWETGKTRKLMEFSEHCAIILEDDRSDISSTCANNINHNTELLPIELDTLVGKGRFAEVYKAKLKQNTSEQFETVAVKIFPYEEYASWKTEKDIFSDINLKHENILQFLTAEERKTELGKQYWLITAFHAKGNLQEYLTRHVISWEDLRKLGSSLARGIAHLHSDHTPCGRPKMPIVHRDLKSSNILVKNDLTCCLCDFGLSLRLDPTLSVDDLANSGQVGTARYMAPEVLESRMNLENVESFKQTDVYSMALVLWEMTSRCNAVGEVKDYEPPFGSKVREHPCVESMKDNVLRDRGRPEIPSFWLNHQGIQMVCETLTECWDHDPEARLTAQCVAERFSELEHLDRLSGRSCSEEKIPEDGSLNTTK
The target of test [4] is Ribosomal protein S6 kinase alpha-4 (Homo sapiens) (UniProt O75676). In words: Inhibition of N-terminal RPS6KA4 […] domain 1 (unknown origin) assessed as residual activity at 1000 nM by KINOMEscan analysis relative to control.
Chain of Ribosomal protein S6 kinase alpha-4 (Homo sapiens) (O75676 whole entry, looked up): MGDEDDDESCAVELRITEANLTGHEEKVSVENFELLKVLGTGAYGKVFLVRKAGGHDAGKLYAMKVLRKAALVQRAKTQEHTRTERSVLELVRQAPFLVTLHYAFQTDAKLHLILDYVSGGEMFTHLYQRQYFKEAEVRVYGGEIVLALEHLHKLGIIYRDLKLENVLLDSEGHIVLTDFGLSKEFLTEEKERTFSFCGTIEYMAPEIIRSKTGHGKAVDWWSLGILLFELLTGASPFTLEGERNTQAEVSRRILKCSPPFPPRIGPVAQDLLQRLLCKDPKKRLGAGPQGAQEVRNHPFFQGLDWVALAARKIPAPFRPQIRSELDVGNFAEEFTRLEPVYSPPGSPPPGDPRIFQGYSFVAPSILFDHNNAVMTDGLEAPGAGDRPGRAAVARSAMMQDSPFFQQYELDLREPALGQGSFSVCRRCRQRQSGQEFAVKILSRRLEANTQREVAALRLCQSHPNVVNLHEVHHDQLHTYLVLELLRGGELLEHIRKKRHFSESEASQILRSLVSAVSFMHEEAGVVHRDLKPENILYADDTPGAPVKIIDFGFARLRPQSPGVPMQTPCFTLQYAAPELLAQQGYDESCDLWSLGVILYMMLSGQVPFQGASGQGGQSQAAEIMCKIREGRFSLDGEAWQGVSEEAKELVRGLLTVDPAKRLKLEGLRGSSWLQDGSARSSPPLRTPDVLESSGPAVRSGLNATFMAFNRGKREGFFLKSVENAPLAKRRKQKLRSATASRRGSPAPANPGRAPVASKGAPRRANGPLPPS
The target of test [5] is T1, Tyrosine-protein kinase ITK/TSK (Homo sapiens) (UniProt Q08881).
T1 sequence (whole entry): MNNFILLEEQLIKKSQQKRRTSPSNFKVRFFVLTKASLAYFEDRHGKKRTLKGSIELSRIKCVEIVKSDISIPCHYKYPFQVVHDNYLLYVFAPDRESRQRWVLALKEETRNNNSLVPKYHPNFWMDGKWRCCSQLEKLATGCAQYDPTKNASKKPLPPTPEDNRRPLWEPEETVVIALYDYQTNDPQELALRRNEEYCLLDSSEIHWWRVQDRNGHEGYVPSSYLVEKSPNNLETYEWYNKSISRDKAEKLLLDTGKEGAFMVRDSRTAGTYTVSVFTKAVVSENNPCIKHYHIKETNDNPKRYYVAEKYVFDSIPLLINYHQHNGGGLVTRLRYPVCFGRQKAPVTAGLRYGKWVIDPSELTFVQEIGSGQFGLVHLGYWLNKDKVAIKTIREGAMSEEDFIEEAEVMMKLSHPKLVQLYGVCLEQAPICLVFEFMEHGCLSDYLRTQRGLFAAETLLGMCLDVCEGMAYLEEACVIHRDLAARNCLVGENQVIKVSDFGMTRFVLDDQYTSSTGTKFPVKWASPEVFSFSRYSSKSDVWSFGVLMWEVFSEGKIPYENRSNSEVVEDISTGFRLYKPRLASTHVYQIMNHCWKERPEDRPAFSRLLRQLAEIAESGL
In words: Inhibition of ITK (unknown origin) assessed as residual activity at 1000 nM by KINOMEscan analysis relative to control.

The test system of test [6] is Hepatocyte growth factor receptor (Homo sapiens), P08581 [Y1235D]. In words: Inhibition of MET Y1235D mutant (unknown origin) assessed as residual activity at 1000 nM by KINOMEscan analysis relative to control.
The target in test [7] is T2, Protein kinase C iota type (Homo sapiens) (UniProt P41743).
T2 sequence (whole entry): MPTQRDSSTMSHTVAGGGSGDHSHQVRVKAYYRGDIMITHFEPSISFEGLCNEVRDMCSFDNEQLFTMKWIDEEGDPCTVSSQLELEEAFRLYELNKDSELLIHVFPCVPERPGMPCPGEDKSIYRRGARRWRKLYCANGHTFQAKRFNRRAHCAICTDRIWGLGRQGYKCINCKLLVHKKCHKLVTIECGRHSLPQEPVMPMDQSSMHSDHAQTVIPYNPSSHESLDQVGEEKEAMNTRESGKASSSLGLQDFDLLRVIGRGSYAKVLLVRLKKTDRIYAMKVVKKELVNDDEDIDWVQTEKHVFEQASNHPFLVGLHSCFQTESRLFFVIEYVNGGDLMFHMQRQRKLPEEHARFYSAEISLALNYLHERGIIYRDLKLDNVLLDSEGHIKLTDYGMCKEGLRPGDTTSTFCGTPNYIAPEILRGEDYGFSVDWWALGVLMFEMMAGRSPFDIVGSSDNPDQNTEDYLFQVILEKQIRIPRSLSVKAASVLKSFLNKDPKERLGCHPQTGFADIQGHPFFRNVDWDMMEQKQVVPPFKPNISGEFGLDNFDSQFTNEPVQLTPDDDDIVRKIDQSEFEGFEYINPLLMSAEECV
In words: Inhibition of PRKCI (unknown origin) assessed as residual activity at 1000 nM by KINOMEscan analysis relative to control.

The target in test [8] is Mast/stem cell growth factor receptor Kit (Homo sapiens) (UniProt P10721). The test can be described thus: Inhibition of KIT (unknown origin) assessed as residual activity at 1000 nM by KINOMEscan analysis relative to control.
Chain of Mast/stem cell growth factor receptor Kit (Homo sapiens) (P10721 whole entry, the tested form may be a part): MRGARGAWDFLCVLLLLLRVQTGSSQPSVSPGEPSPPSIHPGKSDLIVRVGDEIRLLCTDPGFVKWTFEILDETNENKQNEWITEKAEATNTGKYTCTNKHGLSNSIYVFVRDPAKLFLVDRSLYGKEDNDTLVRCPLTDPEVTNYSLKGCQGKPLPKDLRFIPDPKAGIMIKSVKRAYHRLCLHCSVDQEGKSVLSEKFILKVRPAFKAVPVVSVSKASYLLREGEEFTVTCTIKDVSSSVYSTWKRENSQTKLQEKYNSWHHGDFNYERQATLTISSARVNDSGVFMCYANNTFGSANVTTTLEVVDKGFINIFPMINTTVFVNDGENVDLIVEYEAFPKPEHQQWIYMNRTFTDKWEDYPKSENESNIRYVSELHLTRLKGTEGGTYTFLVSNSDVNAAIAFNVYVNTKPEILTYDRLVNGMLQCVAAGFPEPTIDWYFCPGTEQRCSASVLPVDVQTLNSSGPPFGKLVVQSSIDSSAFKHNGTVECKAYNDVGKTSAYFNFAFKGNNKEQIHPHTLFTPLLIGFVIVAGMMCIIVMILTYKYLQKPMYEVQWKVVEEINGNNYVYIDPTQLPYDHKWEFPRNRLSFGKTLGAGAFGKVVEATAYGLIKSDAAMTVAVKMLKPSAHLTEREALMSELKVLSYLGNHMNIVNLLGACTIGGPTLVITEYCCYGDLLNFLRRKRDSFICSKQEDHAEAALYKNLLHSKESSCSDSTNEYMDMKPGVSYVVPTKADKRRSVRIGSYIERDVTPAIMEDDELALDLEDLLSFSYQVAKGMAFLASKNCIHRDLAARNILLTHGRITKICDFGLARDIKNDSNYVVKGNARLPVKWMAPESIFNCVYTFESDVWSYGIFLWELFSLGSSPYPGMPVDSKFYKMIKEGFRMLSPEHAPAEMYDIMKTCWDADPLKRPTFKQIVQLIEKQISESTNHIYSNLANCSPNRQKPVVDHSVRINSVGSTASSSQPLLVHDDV
The target in test [9] is Tyrosine-protein kinase JAK1 (Homo sapiens) (UniProt P23458). The test can be described thus: Inhibition of JAK1 JH2 pseudokinase domain (unknown origin) assessed as residual activity at 1000 nM by KINOMEscan analysis relative to control.
Chain of Tyrosine-protein kinase JAK1 (Homo sapiens) (P23458 whole entry, the tested form may be a part): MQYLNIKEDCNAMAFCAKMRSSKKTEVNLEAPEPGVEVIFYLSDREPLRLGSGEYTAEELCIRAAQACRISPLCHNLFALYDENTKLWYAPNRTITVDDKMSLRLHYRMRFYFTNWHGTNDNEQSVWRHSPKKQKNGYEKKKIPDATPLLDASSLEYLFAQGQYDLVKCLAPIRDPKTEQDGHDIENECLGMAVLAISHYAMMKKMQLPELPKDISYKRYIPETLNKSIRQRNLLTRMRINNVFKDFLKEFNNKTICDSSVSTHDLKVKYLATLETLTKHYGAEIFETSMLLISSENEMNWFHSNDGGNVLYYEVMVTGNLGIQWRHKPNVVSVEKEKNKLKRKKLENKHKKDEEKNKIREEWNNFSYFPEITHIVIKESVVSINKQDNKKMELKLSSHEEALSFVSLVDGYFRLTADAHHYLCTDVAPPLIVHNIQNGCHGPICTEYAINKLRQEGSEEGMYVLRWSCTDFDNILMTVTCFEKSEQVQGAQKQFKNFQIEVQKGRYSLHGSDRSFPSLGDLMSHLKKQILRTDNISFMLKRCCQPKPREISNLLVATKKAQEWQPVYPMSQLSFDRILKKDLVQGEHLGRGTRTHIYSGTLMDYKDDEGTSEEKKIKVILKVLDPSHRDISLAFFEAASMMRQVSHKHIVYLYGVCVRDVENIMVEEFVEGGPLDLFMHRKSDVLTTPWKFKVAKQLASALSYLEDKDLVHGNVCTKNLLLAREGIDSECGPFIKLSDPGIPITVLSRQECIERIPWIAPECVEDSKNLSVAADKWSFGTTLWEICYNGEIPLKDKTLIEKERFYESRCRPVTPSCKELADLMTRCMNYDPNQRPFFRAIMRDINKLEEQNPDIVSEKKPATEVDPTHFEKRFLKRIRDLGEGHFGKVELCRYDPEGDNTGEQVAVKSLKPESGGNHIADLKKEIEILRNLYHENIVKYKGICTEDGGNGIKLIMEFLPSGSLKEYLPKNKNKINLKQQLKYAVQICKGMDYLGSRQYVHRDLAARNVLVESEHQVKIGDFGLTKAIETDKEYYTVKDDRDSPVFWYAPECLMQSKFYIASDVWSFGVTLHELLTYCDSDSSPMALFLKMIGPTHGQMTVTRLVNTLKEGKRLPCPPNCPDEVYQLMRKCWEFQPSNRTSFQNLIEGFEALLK
For test [10], the target named is Serine/threonine-protein kinase Nek6 (Homo sapiens) (UniProt Q9HC98). The test can be described thus: Inhibition of NEK6 (unknown origin) assessed as residual activity at 1000 nM by KINOMEscan analysis relative to control.
Chain of Serine/threonine-protein kinase Nek6 (Homo sapiens) (Q9HC98 whole entry): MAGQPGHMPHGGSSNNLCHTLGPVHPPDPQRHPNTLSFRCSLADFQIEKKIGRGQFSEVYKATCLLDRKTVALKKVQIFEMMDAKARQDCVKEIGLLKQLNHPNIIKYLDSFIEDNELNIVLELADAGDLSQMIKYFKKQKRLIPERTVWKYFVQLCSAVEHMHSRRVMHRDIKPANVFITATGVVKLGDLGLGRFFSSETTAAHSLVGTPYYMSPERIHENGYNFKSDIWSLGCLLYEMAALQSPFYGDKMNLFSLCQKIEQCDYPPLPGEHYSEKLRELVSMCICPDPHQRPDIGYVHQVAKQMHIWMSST
Test [11] concerns the target Ribosomal protein S6 kinase alpha-4 (Homo sapiens) (UniProt O75676). In words: Inhibition of C-terminal RPS6KA4 […] domain 2 (unknown origin) assessed as residual activity at 1000 nM by KINOMEscan analysis relative to control.
In test [12] the target is Cyclin-dependent kinase 9 (Homo sapiens) (UniProt P50750). In words: Inhibition of CDK9 (unknown origin) assessed as residual activity at 1000 nM by KINOMEscan analysis relative to control.
Chain of Cyclin-dependent kinase 9 (Homo sapiens) (P50750 whole entry, canonical isoform): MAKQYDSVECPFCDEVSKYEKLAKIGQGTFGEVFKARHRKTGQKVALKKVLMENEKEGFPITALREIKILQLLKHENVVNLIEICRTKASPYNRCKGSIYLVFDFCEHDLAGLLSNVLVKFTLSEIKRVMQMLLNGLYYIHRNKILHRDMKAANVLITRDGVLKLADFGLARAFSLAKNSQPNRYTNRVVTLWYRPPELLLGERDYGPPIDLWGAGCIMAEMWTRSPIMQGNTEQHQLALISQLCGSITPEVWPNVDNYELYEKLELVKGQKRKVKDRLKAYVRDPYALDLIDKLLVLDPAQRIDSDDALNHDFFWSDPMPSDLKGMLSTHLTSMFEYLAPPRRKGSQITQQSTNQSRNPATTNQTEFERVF
Test [13] deals with Casein kinase I isoform gamma-2 (Homo sapiens) (UniProt P78368). In words: Inhibition of CSNK1G2 (unknown origin) assessed as residual activity at 1000 nM by KINOMEscan analysis relative to control.
Chain of Casein kinase I isoform gamma-2 (Homo sapiens) (P78368 whole entry, looked up, canonical isoform): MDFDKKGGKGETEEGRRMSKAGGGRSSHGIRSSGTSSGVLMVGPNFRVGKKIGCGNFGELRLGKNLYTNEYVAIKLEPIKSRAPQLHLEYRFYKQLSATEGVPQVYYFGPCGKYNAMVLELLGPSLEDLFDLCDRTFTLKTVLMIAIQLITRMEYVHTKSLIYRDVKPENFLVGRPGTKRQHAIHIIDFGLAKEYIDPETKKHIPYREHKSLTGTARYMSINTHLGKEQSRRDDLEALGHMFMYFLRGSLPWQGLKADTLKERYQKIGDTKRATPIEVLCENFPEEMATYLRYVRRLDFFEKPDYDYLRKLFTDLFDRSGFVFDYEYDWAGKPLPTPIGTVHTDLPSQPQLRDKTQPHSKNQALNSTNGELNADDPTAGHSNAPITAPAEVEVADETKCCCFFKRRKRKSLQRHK
The target in test [14] is T3, TGF-beta receptor type-1 (Homo sapiens) (UniProt P36897).
T3 sequence (whole entry): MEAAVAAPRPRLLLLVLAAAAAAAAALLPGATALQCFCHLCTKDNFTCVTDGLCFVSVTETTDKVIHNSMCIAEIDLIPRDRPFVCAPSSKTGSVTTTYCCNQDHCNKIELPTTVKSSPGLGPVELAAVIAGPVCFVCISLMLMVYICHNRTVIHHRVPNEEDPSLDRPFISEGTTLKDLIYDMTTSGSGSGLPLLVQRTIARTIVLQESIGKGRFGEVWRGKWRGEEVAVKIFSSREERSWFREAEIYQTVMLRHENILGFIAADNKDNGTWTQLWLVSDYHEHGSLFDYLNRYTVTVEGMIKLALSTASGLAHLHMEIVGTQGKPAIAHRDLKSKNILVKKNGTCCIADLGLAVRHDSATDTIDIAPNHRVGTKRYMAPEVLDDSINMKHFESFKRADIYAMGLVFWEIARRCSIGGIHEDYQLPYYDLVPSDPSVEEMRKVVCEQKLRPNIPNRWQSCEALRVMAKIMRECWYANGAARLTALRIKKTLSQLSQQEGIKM
The test can be described thus: Inhibition of TGFBR1 (unknown origin) assessed as residual activity at 1000 nM by KINOMEscan analysis relative to control.

On to `COc1cc2ncnc(N[C@H](C)c3cccc4ccccc34)c2cc1OC`, for which the Activity in test [1] amounted to 74%; in test [2] it was 71%; in test [3] it was 100%; in [4], 100%; in test [5], 100%; in test [6] it was 100%. Further, the Activity in [7] was found to be 100%; in [8], 100%; in [9], 100%; in [10], 97%; in test [11], 82%; in [12] it was 95%. Also, the Activity in [13] and in [14] was 100% throughout.
Turning to `COc1cc2nc(C)nc(N[C@H](C)c3cccc(-c4cn[nH]c4)c3)c2cc1OC`, the Activity was 92% in [1]; 91% in test [2]; 93% in test [3]; 0% in test [4]; 67% in test [5]; 78% in test [6]. In addition, the Activity in test [7] came out at 61%; in test [8], 99%; in test [9] it was 78%; in test [10] it was 93%; in [11], 100%; in test [12] it was 95%. The Activity in test [13] and in [14] was 100% each time.
